Data set [1] concerns the target human ether-a-go-go related gene (hERG) channel (Homo sapiens (Human), UniProt Q12809). Kind of data set: hERG test (whole cell patch clamp, IKr). The note with it: 1 μmol/L of test compound, HEK293 cells expressing hERG. In kind it is cell-based. From the text:
For the purpose of assessing risk of an electrocardiogram QT interval prolongation, effects on delayed rectifier K^+ current (IKr), which plays an important role in the ventricular repolarization process, was studied using HEK293 cells expressing human ether-a-go-go related gene (hERG) channel.
After a cell was retained at a membrane potential of −80 mV by whole cell patch clamp method using an automated patch clamp system (PatchXpress 7000A, Axon Instruments Inc.), IKr induced by depolarization pulse stimulation at +40 mV for 2 seconds and, further, repolarization pulse stimulation at −50 mV for 2 seconds was recorded. […] From the recording IKr, an absolute value of the tail peak current was measured based on the current value at the resting membrane potential using an analysis software (DataXpress ver. 1, Molecular Devices Corporation). Further, the % inhibition relative to the tail peak current before application of the test substance was calculated, and compared with the vehicle-applied group (0.1% dimethyl sulfoxide solution) to assess influence of the test substance on IKr.
On the technique in general: The hERG channel carries a current that helps repolarise heart muscle cells.

The target in another data set is human TRPV4 (Homo sapiens (Human), UniProt Q9HBA0). Put plainly: Test Example 1: measurement of TRPV4 inhibitory activity (Fluo 4-AM, FLIPR TETRA, 4α-PDD 1 μmol/L). In kind it is cell-based. The note with it: hTRPV4/CHO cells, 4α-PDD 1 μmol/L. The procedure, abridged:
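CHO-K1 cells stably expressing human TRPV4, Fluo-4-loaded, pre-incubated 5 min with compound (10 points, 3-fold, 10 μmol/L to 0.5 nmol/L) before 1 μmol/L 4α-PDD; FLIPR max-min fluorescence over 5 min, normalised to 20 μM Ruthenium Red. IC50 by logistic fit; Ki from IC50 using 4α-PDD EC50.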

A short description of data set [2]: Metabolism stability test. The conditions noted are these: human liver microsomes, 30 minutes, compound concentration 2 μmol/L. Type of data set: in vitro ADME. Here is the method:
Using a commercially available pooled human hepatic microsomes, a test compound was reacted for a constant time, a remaining rate was calculated by comparing a reacted sample and an unreacted sample, thereby, a degree of metabolism in liver was assessed.
A reaction was performed (oxidative reaction) at 37° C. for 0 minute or 30 minutes in the presence of 1 mmol/L NADPH in 0.2 mL of a buffer (50 mmol/L Tris-HCl pH 7.4, 150 mmol/L potassium chloride, 10 mmol/L magnesium chloride) containing 0.5 mg protein/mL of human liver microsomes. After the reaction, 50 μL of the reaction mixture was added to 100 μL of a methanol/acetonitrile=1/1 (v/v), mixed and centrifuged at 3000 rpm for 15 minutes. The test compound in the supernatant was quantified by LC/MS/MS, and a remaining amount of the test compound after the reaction was calculated, letting a compound amount at 0 minute reaction time to be 100%. Hydrolysis reaction was performed in the absence of NADPH and glucuronidation reaction was in the presence of 5 mM UDP-glucuronic acid in place of NADPH, followed by similar operations.
(In general: Liver microsomes are a subcellular fraction often used to study metabolism.)

The structures appear in SMILES notation. pIC50: −log10 of the molar value.

By pIC50 is commonly meant the IC50 on a negative log10 scale, so that one unit is a factor of ten. A higher pIC50 goes with a low IC50.

Chain of human TRPV4 (Q9HBA0 whole entry): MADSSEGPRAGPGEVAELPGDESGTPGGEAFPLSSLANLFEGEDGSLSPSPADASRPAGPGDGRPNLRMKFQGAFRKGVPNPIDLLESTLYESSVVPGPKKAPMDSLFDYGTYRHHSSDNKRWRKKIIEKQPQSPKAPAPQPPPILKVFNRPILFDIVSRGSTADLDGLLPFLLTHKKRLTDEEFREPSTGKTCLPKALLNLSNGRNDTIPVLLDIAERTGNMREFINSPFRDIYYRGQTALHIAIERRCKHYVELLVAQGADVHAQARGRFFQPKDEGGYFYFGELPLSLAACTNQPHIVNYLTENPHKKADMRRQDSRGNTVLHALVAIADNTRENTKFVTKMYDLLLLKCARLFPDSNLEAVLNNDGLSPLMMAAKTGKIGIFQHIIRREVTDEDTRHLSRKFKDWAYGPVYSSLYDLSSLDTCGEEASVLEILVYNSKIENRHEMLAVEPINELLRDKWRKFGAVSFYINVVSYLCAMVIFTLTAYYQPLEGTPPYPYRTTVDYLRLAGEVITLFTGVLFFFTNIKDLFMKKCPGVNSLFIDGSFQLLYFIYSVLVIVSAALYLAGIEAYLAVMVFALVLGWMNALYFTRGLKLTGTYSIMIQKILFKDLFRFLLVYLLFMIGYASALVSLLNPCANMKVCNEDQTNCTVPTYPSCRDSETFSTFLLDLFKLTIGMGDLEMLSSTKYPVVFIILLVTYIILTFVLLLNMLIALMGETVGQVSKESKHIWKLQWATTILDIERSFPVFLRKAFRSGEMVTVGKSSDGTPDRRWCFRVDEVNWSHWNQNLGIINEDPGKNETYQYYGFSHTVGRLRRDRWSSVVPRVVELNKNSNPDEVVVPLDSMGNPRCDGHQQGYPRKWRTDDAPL
Chain of human ether-a-go-go related gene (hERG) channel (Q12809 whole entry): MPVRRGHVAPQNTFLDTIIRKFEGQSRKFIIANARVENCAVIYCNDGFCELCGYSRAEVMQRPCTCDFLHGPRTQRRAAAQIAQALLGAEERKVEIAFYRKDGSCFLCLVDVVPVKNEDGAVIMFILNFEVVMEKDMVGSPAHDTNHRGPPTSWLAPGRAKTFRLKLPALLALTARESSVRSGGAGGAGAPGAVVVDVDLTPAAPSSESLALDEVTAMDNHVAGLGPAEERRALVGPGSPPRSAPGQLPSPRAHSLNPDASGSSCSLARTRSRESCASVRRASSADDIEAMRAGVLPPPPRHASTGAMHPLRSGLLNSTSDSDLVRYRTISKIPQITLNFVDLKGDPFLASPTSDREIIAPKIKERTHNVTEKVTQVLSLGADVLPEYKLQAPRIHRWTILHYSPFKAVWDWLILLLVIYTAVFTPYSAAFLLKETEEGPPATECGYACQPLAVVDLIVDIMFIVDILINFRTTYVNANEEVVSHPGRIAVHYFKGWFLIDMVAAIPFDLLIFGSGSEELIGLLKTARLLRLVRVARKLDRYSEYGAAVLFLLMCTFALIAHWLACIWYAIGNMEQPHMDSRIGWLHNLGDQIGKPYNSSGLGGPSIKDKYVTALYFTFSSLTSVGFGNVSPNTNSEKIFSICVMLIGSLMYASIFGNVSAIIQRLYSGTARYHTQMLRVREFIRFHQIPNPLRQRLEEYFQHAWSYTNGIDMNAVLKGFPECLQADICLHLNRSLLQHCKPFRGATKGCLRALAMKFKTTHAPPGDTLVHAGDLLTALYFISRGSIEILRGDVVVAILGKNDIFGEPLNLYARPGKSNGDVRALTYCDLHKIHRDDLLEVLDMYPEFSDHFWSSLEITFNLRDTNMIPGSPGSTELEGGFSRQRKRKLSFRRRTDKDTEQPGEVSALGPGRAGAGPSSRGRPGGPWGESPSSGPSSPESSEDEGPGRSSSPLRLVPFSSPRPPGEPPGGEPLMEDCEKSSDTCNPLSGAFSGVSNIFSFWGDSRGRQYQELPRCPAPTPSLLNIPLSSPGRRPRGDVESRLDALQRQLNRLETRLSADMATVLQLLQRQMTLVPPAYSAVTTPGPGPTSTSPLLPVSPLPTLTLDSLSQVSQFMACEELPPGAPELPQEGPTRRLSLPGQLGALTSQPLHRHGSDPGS

`Cc1c(C(=O)Nc2cccc(C(F)(F)F)c2)cc(-c2ccccc2)n1CCCNS(C)(=O)=O` [Compound I-026] came in with a hERG % inhibition in data set [1] of 11.7%. For the same molecule, at human TRPV4, the pIC50 was 6.07.

In turn, `Cc1c(C(=O)Nc2cccc(C(F)(F)F)c2)cc(-c2ccccc2)n1CCCN(C)C` [Compound I-018] showed a pIC50 against human TRPV4 of 6.48. Besides, in data set [2], the “remaining rate (metabolism stability)” value came out at 70.6%.

On human TRPV4, `Cc1c(C(=O)Nc2cccc(C(F)(F)F)c2)ccn1CCCN1CCOCC1` [Compound I-007] showed a pIC50 of 5.05. In data set [2], the “remaining rate (metabolism stability)” value is on record as 85%.

These data come from patent US9340500B2, “Aromatic heterocyclic derivative having TRPV4-inhibiting activity” (SHIONOGI & CO., LTD., priority 2011, dated 2016).
